From patent publication US8440638B2, “Compositions and methods for modulating calcium flux, glucose homeostasis and apoptosis” (Wisconsin Alumni Research Foundation, priority 2004, dated 2013)

How the values were obtained:
[1] = tested on: cellular levels of OAADPr in HEK-293 cells; assay: Detection of cellular OAADPr by HPLC fractionation and MALDI mass spectrometry; type: cell-based; conditions: puromycin-treated vs mock-treated HEK-293 cells
Description: Shown is the development of whole cell currents over time in TRPM2-expressing HEK-293 cells. Bath solution was standard ringer's, and pipette solution was Cs-based and included 10 mM EGTA to buffer intracellular Ca^2+ to 10 nM. The patch pipette contained various concentrations of (FIG. 1a) ADPr, (FIG. 1b) OAADPr (FIG. 1c) OAADPr and puromycin as indicated in the figure. FIG. 1d.) Cytoplasmic OAADPr esterase activity is inhibited by puromycin. 200 μM O-[^3H]AADPr and 0-100 μM puromycin were added to cytoplasmic HEK-293 extract for 30 min. Percent hydrolysis of O-[^3H]AADPr to [^3H]acetate was measured as described hereinbelow. FIG. 1e.) Nuclear OAADPr acetyltransferase activity is not inhibited by puromycin. HEK-293 nuclear extract was incubated with 200 μM O-[^3H]AADPr in the presence or absence of 100 μM puromycin for 60 min. The reactions were quenched and resolved by HPLC. The radioactivity in collected fractions was determined by liquid scintillation counting. FIGS. 1f-g.) In vivo detection of OAADPr. Mass spectrum of HEK-293 generated OAADPr (peak m/z of 602.0894; the theoretical m/z for OAADPr is 602.0895) after puromycin treatment, with authentic [^13C]-OAADPr (peak m/z of 603.0851 and isotopic distribution of 604.0878 and 605.0928) as a standard. Peak 599.3691 is from the matrix. […]

OAADPr esterase = assay: Cytoplasmic OAADPr esterase activity in HEK-293 cytoplasmic extract; type: biochemical
Description: Shown is the development of whole cell currents over time in TRPM2-expressing HEK-293 cells. Bath solution was standard ringer's, and pipette solution was Cs-based and included 10 mM EGTA to buffer intracellular Ca^2+ to 10 nM. The patch pipette contained various concentrations of (FIG. 1a) ADPr, (FIG. 1b) OAADPr (FIG. 1c) OAADPr and puromycin as indicated in the figure. FIG. 1d.) Cytoplasmic OAADPr esterase activity is inhibited by puromycin. 200 μM O-[^3H]AADPr and 0-100 μM puromycin were added to cytoplasmic HEK-293 extract for 30 min. Percent hydrolysis of O-[^3H]AADPr to [^3H]acetate was measured as described hereinbelow. FIG. 1e.) Nuclear OAADPr acetyltransferase activity is not inhibited by puromycin. HEK-293 nuclear extract was incubated with 200 μM O-[^3H]AADPr in the presence or absence of 100 μM puromycin for 60 min. The reactions were quenched and resolved by HPLC. The radioactivity in collected fractions was determined by liquid scintillation counting. FIGS. 1f-g.) In vivo detection of OAADPr. Mass spectrum of HEK-293 generated OAADPr (peak m/z of 602.0894; the theoretical m/z for OAADPr is 602.0895) after puromycin treatment, with authentic [^13C]-OAADPr (peak m/z of 603.0851 and isotopic distribution of 604.0878 and 605.0928) as a standard. Peak 599.3691 is from the matrix.
Cytoplasmic and nuclear extracts were prepared from HEK-293 cells as previously described (22). To detect esterase activity (22), cytoplasmic extract was incubated with 200 μM O-[^3H]AADPr in the presence of 0-100 μM puromycin for 30 min. Activated charcoal slurry in PBS, pH 7.0 was added to quench the reaction and bind O-[^3H]AADPr. Samples were vortexed and centrifuged. Aliquots of the supernatant containing [^3H]acetate were removed and analyzed by liquid scintillation counting. To detect nuclear OAADPr metabolizing activity (22), nuclear extract was incubated with 200 μM O-[^3H]AADPr in the presence or absence of 100 μM puromycin for 60 min. The reaction was terminated by addition of TFA to 1%. […] Radioactivity in each elution fraction was measured by liquid scintillation counting.

CRI-G1 cells = assay: Cell viability assay (calcein fluorescence), CRI-G1 cells; type: cell-based, rat; conditions: 0-40 μM puromycin, 16 h
Description: FIG. 4 a) OAADPr gates the endogenous TRPM2 channel in CRI-G1 cells. Left panel: Evolution of currents in CRI-G1 cells in the absence (grey squares) or presence (black circles) of OAADPr (120-250 μM). Shown are average leak subtracted currents from n=3 cells for each condition. Right panel: Representative leak subtracted whole cell I/V curves for peak currents observed in the absence (grey line) and presence (black line) of OAADPr. For the above measurements, CRI-G1 cells were maintained in the whole cell patch clamp configuration as previously described for HEK-293 cells (44). b) Puromycin leads to cell death in CRI-G1 cells. CRI-G1 cells were treated with 0-40 μM puromycin for 16 h. Cell viability was assessed by measuring fluorescence of calcein in live cells. Data obtained from 4 independent experiments were plotted as a percent change in fluorescence compared to those of untreated cells set at a 100%. Error bars indicate the standard deviation from the mean. (Inset) Nicotinamide rescues puromycin-induced death in CRI-G1 cells. […] Cell viability was assessed 16 h later as described above. […] Calcein is retained in living, but not dead cells, where it undergoes catalytic conversion into a fluorescent compound Fluorescence in each well was measured in a microplate reader using excitation and emission filters at 485/530 nm, respectively.

pancreatic cells = conditions: not the result of inhibition of protein synthesis (ref. 47); cited from earlier work

Q: What does the source list for `COc1ccc(C[C@H](N)C(=O)N[C@H]2[C@@H](O)[C@H](n3cnc4c(N(C)C)ncnc43)O[C@@H]2CO)cc1` [puromycin]?
A: cellular levels of OAADPr after treatment [1]: significantly detectable levels; inhibition of cytosolic esterase activity (OAADPr esterase; 5 μM puromycin): substantially inhibit; inhibition of esterase activity (OAADPr esterase; 80 μM puromycin): completely inhibited; inhibition of OAADPr esterase (OAADPr esterase; 200 μM O-[3H]AADPr, 0-100 μM puromycin, 30 min): potent inhibitor; cell death of CRI-G1 cells (CRI-G1 cells): dose-dependent death; effect of puromycin treatment in whole rat (pancreatic cells): specific pancreatic cell death
